Results on 10 compounds are retold here after US6251914A, “Cycloalkyl substituted imidazoles” (SmithKline Beecham Corporation, priority 1999, dated 2001).

Structures can show the parent of a compound that is named as a salt.

T1 sequence (Q16539 whole entry): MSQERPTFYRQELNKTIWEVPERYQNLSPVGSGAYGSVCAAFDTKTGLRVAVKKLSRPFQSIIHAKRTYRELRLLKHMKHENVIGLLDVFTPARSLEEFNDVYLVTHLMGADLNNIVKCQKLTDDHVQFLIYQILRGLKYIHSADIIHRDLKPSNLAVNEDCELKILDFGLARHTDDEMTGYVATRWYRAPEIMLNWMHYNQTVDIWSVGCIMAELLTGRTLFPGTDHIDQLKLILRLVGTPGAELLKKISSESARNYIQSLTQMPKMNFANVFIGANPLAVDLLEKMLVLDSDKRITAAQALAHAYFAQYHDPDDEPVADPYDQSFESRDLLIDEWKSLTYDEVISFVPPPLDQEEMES
T2 sequence (Q16539 whole entry): as above

The first experiment deals with IL-1 and TNF.
Assay: not given
As to conditions: cited from earlier work.
As to `Fc1ccc(-c2nc3n(c2-c2ccncc2)CCS3)cc1` [SK&F 86002], the “inhibition of IL-1 and TNF” value was “inhibiting IL-1 and TNF”. Regarding `C[S+]([O-])c1ccc(-c2nc(-c3ccncc3)c(-c3ccc(F)cc3)[nH]2)cc1` (stereo not drawn) [SB 203580], the “inhibition of IL-1 and TNF” value was “inhibiting IL-1 and TNF”.

The next experiment addresses T1, p38 (Homo sapiens, UniProt Q16539).
T1 construct: made in house; host or cells: yeast
The experiment is described as follows: CSBP Kinase Assay, minor variation (activated p38, T669 peptide, 96 well plate). Format: biochemical. As to conditions: 0.17 mM ATP, 0.67 mM T669 peptide, 24 nM p38, 37° C., 25 min; read-out: positive inhibitory activity, IC50 in kinase assay (minor variation). On the procedure: A minor variation of the above assay is shown below:
Reactions were carried in round bottom 96 well plate (from Corning) in a […]. Reactions contained (in final concentration): 25 mM Hepes, pH7.5; 8 mM MgCl2; 0.17 mM ATP (the Km[ATP] of p38 (see Lee et al., Nature 300, n72 pg 639-746 (December 1994)); 2.5 uCi of [g-32P]ATP; 0.2 mM sodium orthovanadate; 1 mM DTT; 0.1% BSA; 10% glycerol; 0.67 mM T669 peptide; and 24 nM of yeast-expressed, activated and purified p38. Reactions were initiated by the addition of [gamma-32P]Mg/ATP, and incubated for 25 min. at 37° C. Inhibitors (dissolved in DMSO) were incubated with the reaction mixture on ice for 30 minutes prior to adding the 32P-ATP. Final DMSO concentration was 0.16%. Reactions were terminated by adding 10 ul of 0.3 M phosphoric acid, and phosphorylated peptide was isolated from the reactions by capturing it on p81 phosphocellulose filters. Filters were washed with 75 mM phosphoric acids, and incorporated 32P was quantified using beta scintillation counter. Under these conditions, the specific activity of p38 was 400-450 pmol/pmol enzyme, and the activity was linear for up to 2 hr of incubation. The kinase activity values were obtained after subtracting values generated in the absence of substrate which were 10-15% of total values.
By IC50 is commonly meant the point on the concentration scale where inhibition reaches its midpoint. On to `COc1nccc(-c2c(-c3ccc(F)cc3)ncn2[C@H]2CC[C@H](OCCN(C)C)CC2)n1` [Example 18, trans-4-(4-Fuorophenyl)-1-[4-(2-(N,N-dimethylamino)ethoxy)cyclohexyl]-5-[(2-methoxy)pyrimidine-4-yl]-imidazole hydrochloride], for which the IC50 was < 50 µM. As for `COc1nccc(-c2c(-c3ccc(F)cc3)ncn2C2CCC2)n1` [Example 13, 1-Cyclobutyl-4-(4-fluorophenyl)-5-(2-methoxypyrimidin-4-yl)imidazole], the IC50 is < 50 µM. Same read-out and setting: the value for `COc1nccc(-c2c(-c3ccc(F)cc3)ncn2[C@H]2CC[C@H](OCSC)CC2)n1` [Example 17, trans-4-(4-Fluorophenyl)-5-(2-methoxypyrimidin-4-yl)-1-[4-(methylthiomethoxy)cyclohexyl]imidazole] was < 50 µM. The same measure, in the same setting: the value for `COc1nccc(-c2c(-c3ccc(F)cc3)ncn2C2CCCCCC2)n1` [Example 16, 1-Cycloheptyl-4-(4-fluorophenyl)-5-(2-methoxypyrimidin-4-yl)imidazole] was < 50 µM.

A further experiment addresses T2, CSBP2 (Homo sapiens, UniProt Q16539).
T2 construct: made in house; host or cells: yeast
Briefly: CSBP Kinase Assay (32P transfer to EGFR-derived peptide T669). The format is biochemical. As to conditions: 170 uM ATP, 0.4 mM T669 peptide, 30° C., 10 min; read-out: positive inhibitory activity, IC50 in CSBP kinase assay. On the procedure:
This assay measures the CSBP-catalyzed transfer of ^32 P from […] to threonine residue in an epidermal growth factor receptor (EGFR)-derived peptide (T669) with the following sequence: […] (residues 661-681). (See Gallagher et al., "Regulation of Stress Induced Cytokine Production by Pyridinyl Imidazoles: Inhibition of CSPB Kinase", BioOrganic & Medicinal Chemistry, to be published 1996).
Kinase reactions (total volume 30 ul) contain: 25 mM Hepes buffer, pH 7.5; 10 mM MgCl2; 170 uM ATP^(1); 10 uM Na ortho vanadate; 0.4 mM T669 peptide; and 20-80 ng of yeast-expressed purified CSBP2 (see Lee et al., Nature 300, n(72), 739-746 (December 1994)). Compounds (5 ul from [6×] stock^(2)) are pre-incubated with the enzyme and peptide for 20 min. on ice prior to starting the reactions with 32P/MgATP. Reactions are incubated at 30° C. for 10 min. and stopped by adding 10 ul of 0.3 M phosphoric acid. 32P-labeled peptide is separated on phosphocellulose (Wattman, p81) filters by spotting 30 ul reaction mixture. Filters are washed 3 times with 75 mM phosphoric acid followed by 2 washes with H2 O, and counted for 32P.
^(2) Compounds are usually dissolved in DMSO and are diluted in 25 mM HEPES buffer to get final concentration of DMSO of 0.17%.
For the compound `COc1nccc(-c2c(-c3ccc(F)cc3)ncn2C2CC2)n1` [Example 14, 1-Cyclopropyl-4-(fluorophenyl)-5-(2-methoxypyrimidin-4-yl)imidazole], the IC50 was < 50 µM. Still for that read-out and setting: with `COc1nccc(-c2c(-c3ccc(F)cc3)ncn2C2CCCC2)n1` [Example 15, 1-Cyclopentyl-4-(4-fluorophenyl)-5-(2-methoxypyrimidin-4-yl)imidazole] the figure was < 50 µM. On to `COc1nccc(-c2c(-c3ccc(F)cc3)ncn2C2CCCCC2)n1` [Example 12, 1-Cyclohexyl-4-(4-fluorophenyl)-5-(2-methoxypyrimidin-4-yl)imidazole], for which the IC50 was < 50 µM.

With `CCOc1nccc(-c2c(-c3ccc(F)cc3)ncn2[C@H]2CC[C@H](O)CC2)n1` [Example 9, trans-1-(4-Hydroxycyclohexyl)-4-(4-fluorophenyl)-5-[(2-ethoxy)pyrimidine-4-yl]imidazole], the IC50 is < 50 µM.

Another experiment concerns IL-6, IL-8, GM-CSF and COX-2.
Assay: not given
As to conditions: cited from earlier work.
Turning to `Fc1ccc(-c2nc3n(c2-c2ccncc2)CCS3)cc1` [SK&F 86002], the “synthesis of pro-inflammatory proteins including IL-6, IL-8, GM-CSF and COX-2” value was “decrease the synthesis”. For the compound `C[S+]([O-])c1ccc(-c2nc(-c3ccncc3)c(-c3ccc(F)cc3)[nH]2)cc1` (stereo not drawn) [SB 203580], the “synthesis of pro-inflammatory proteins including IL-6, IL-8, GM-CSF and COX-2” value was “decrease the synthesis”.
